How the values were obtained:
[1] = molecular target: Alpha-2B adrenergic receptor (Homo sapiens) (UniProt P18089); experiment: Inhibition of adrenoceptor alpha 2B (unknown origin) relative to control; settings: concentration not given here
[2] = molecular target: T1, Sigma intracellular receptor 2 (Homo sapiens, UniProt Q5BJF2); experiment: Inhibition of sigma2 receptor (unknown origin) relative to control; settings: concentration not given here
[3] = molecular target: D(1A) dopamine receptor (Homo sapiens) (UniProt P21728); experiment: Inhibition of D1 (unknown origin) relative to control; settings: concentration not given here
[4] = molecular target: Dual specificity calcium/calmodulin-dependent 3',5'-cyclic nucleotide phosphodiesterase 1B (Homo sapiens) (UniProt Q01064); experiment: Inhibition of recombinant human N-terminal GST-tagged PDE1B expressed in baculovirus infected Sf9 cells at 10 uM by radioligand assay relative to control
[5] = molecular target: Dual specificity calcium/calmodulin-dependent 3',5'-cyclic nucleotide phosphodiesterase 1C (Homo sapiens) (UniProt Q14123); experiment: Inhibition of recombinant human N-terminal GST-tagged PDE1C expressed in baculovirus infected Sf9 cells at 10 uM by radioligand assay relative to control
Sequence of Dual specificity calcium/calmodulin-dependent 3',5'-cyclic nucleotide phosphodiesterase 1C (Homo sapiens) (Q14123 whole entry): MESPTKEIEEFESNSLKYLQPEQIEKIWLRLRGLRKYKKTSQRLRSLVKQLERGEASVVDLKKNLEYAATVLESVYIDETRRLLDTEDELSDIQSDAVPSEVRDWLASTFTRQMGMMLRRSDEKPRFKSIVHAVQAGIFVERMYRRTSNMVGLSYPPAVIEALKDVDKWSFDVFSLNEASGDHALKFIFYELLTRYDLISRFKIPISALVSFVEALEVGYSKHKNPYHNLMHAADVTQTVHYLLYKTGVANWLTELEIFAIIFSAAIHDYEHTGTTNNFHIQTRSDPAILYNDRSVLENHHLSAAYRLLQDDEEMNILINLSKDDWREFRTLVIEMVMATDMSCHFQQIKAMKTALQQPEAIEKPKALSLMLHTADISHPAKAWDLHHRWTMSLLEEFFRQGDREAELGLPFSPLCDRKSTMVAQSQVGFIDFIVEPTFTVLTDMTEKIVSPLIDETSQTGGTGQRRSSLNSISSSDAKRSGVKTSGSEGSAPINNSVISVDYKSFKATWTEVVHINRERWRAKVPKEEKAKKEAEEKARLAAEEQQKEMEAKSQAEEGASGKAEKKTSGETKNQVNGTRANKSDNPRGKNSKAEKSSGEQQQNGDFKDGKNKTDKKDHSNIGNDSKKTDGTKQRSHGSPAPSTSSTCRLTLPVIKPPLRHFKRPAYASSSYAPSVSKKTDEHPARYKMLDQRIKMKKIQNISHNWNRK

[6] = molecular target: 5-hydroxytryptamine receptor 1B (Homo sapiens) (UniProt P28222); experiment: Inhibition of 5HT1B (unknown origin) relative to control; settings: concentration not given here
Sequence of 5-hydroxytryptamine receptor 1B (Homo sapiens) (P28222 whole entry): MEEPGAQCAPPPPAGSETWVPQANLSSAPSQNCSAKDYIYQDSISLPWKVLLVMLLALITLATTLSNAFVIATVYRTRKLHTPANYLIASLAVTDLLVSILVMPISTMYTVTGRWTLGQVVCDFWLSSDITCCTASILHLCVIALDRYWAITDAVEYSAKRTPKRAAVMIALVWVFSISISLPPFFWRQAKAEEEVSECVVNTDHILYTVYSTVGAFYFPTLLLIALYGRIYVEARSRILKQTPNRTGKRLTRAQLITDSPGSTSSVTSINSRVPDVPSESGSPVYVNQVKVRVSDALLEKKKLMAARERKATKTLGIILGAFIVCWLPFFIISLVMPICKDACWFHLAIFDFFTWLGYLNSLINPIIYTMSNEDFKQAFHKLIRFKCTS

[7] = molecular target: 3',5'-cyclic-AMP phosphodiesterase 4C (Homo sapiens) (UniProt Q08493); experiment: Inhibition of recombinant human N-terminal GST-tagged PDE4C1 expressed in baculovirus infected Sf9 cells at 10 uM by radioligand assay relative to control
Sequence of 3',5'-cyclic-AMP phosphodiesterase 4C (Homo sapiens) (Q08493 whole entry): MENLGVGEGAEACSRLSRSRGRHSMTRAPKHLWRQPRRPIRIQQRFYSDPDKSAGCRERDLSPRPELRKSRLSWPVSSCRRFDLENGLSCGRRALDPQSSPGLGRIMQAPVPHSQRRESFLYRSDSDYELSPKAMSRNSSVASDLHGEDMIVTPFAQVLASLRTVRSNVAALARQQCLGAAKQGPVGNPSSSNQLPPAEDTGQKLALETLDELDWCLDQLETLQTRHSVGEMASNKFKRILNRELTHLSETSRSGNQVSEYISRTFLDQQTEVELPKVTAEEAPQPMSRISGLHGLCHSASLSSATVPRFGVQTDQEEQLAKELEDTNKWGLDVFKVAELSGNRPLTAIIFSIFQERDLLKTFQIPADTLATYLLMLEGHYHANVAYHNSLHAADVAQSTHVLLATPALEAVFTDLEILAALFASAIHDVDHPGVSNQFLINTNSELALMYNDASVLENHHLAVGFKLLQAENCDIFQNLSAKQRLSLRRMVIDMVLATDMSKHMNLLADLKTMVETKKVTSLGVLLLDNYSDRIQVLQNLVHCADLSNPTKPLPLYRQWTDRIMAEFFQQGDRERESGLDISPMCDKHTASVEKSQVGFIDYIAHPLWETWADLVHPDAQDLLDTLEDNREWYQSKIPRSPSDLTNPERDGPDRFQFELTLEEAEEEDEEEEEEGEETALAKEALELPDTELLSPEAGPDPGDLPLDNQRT

[8] = molecular target: 3',5'-cyclic-AMP phosphodiesterase 4B (Homo sapiens, UniProt Q07343); experiment: Inhibition of recombinant human C-terminal His-tagged N-terminal GST-tagged PDE4B2 expressed in baculovirus infected Sf9 cells by radioligand binding assay; format: cell-based
Sequence of 3',5'-cyclic-AMP phosphodiesterase 4B (Q07343 whole entry): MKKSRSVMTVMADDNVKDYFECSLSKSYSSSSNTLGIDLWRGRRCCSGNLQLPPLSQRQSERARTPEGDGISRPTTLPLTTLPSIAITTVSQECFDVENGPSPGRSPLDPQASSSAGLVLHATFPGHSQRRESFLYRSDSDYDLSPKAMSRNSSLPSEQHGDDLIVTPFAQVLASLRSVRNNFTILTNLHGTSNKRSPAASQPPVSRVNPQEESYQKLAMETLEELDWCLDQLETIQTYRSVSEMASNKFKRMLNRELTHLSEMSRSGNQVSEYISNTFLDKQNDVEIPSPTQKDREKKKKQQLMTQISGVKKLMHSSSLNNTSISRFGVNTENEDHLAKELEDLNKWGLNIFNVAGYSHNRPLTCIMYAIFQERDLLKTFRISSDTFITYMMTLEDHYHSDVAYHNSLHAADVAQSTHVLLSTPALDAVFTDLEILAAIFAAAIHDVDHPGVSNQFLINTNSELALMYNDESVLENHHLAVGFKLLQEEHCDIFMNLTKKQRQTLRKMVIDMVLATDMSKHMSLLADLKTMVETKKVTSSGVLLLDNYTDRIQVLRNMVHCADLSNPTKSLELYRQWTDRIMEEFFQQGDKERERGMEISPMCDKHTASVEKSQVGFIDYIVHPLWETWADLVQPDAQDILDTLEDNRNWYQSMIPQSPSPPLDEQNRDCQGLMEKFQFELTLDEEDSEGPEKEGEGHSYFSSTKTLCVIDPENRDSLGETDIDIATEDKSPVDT

[9] = molecular target: Alpha-1D adrenergic receptor (Homo sapiens) (UniProt P25100); experiment: Inhibition of adrenoceptor alpha 1D (unknown origin) relative to control; settings: concentration not given here
[10] = molecular target: D(1B) dopamine receptor (Homo sapiens) (UniProt P21918); experiment: Inhibition of D5 (unknown origin) relative to control; settings: concentration not given here
[11] = molecular target: cGMP-dependent 3',5'-cyclic phosphodiesterase (Homo sapiens) (UniProt O00408); experiment: Inhibition of recombinant human N-terminal FLAG-tagged PDE2A1 (2 to 941 residues) expressed in baculovirus infected Sf9 cells at 10 uM by radioligand assay relative to control
Sequence of cGMP-dependent 3',5'-cyclic phosphodiesterase (Homo sapiens) (O00408 whole entry, the tested form may be a part): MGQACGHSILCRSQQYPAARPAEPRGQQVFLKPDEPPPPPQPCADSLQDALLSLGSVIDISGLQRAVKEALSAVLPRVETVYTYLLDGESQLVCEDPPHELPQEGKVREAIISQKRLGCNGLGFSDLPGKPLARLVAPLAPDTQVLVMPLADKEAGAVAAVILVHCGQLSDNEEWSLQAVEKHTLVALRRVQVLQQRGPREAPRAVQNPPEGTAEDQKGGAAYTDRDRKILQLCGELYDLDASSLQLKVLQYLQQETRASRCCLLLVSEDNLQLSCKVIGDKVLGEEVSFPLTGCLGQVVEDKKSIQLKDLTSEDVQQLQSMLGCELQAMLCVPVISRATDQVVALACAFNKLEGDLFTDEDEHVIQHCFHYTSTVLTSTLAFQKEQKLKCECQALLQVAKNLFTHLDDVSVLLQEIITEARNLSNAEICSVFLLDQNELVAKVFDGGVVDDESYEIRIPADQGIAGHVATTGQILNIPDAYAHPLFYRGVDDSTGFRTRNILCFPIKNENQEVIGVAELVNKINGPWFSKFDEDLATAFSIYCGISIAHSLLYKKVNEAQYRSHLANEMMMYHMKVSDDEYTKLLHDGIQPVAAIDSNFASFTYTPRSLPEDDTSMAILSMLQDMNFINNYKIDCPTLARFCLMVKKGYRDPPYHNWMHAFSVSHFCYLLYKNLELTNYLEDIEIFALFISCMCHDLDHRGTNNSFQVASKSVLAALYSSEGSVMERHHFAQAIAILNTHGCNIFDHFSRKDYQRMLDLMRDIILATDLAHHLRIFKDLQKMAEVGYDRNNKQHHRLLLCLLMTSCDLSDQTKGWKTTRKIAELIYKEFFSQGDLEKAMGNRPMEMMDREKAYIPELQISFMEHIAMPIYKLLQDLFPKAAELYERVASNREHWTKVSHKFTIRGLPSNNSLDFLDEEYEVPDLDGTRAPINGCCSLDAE

[12] = molecular target: D(4) dopamine receptor (Homo sapiens) (UniProt P21917); experiment: Inhibition of D4 (unknown origin) relative to control; settings: concentration not given here
[13] = molecular target: Beta-2 adrenergic receptor (Homo sapiens) (UniProt P07550); experiment: Inhibition of adrenoceptor beta2 (unknown origin) relative to control; settings: concentration not given here
[14] = molecular target: T1, Sigma intracellular receptor 2; experiment: Inhibition of sigma2 receptor (unknown origin)
[15] = Inhibition of recombinant human N-terminal GST-tagged PDE4A1A (1 to 647 residues) expressed in baculovirus infected Sf9 cells at 10 uM by radioligand assay relative to control
[16] = molecular target: 5-hydroxytryptamine receptor 2C (Homo sapiens, UniProt P28335); experiment: Inhibition of 5HT2C (unknown origin)
[17] = molecular target: Alpha-1B adrenergic receptor (Homo sapiens) (UniProt P35368); experiment: Inhibition of adrenoceptor alpha 1B (unknown origin) relative to control; settings: concentration not given here
[18] = molecular target: Translocator protein TSPO (Homo sapiens) (UniProt P30536); experiment: Inhibition of PBR receptor (unknown origin) relative to control; settings: concentration not given here
[19] = molecular target: Histamine H1 receptor (Homo sapiens) (UniProt P35367); experiment: Inhibition of histamine H1 receptor (unknown origin) relative to control; settings: concentration not given here
[20] = Metabolic stability in mouse liver microsomes assessed as intrinsic clearance; format: ADME, Microsome; settings: read-out: CLH
[21] = molecular target: 5-hydroxytryptamine receptor 1E (Homo sapiens) (UniProt P28566); experiment: Inhibition of 5HT1E (unknown origin) relative to control; settings: concentration not given here
Sequence of 5-hydroxytryptamine receptor 1E (Homo sapiens) (P28566 whole entry): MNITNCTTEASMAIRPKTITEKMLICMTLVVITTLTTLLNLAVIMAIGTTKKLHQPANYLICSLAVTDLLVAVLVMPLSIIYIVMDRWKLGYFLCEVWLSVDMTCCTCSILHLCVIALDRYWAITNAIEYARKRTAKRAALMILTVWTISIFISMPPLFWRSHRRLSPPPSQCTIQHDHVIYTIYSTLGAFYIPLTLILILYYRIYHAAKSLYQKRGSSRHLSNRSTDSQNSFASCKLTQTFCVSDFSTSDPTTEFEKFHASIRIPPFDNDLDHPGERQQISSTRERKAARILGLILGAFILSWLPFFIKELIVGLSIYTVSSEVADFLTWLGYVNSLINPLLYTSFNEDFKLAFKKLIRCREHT

[22] = molecular target: High affinity 3',5'-cyclic-AMP phosphodiesterase 7A (Homo sapiens) (UniProt Q13946); experiment: Inhibition of recombinant human N-terminal GST-tagged PDE7A1 (122 to end residues) expressed in baculovirus infected Sf9 cells at 10 uM by radioligand assay relative to control
[23] = molecular target: Muscarinic acetylcholine receptor M5 (Homo sapiens) (UniProt P08912); experiment: Inhibition of muscarinic M5 receptor (unknown origin) relative to control; settings: concentration not given here
[24] = molecular target: Mu-type opioid receptor (Homo sapiens) (UniProt P35372); experiment: Inhibition of MOR (unknown origin) relative to control; settings: concentration not given here
[25] = molecular target: 5-hydroxytryptamine receptor 6 (Homo sapiens) (UniProt P50406); experiment: Inhibition of 5HT6 (unknown origin) relative to control; settings: concentration not given here
[26] = molecular target: 5-hydroxytryptamine receptor 2B (Homo sapiens) (UniProt P41595); experiment: Inhibition of 5HT2B (unknown origin) relative to control; settings: concentration not given here
Sequence of 5-hydroxytryptamine receptor 2B (Homo sapiens) (P41595 whole entry): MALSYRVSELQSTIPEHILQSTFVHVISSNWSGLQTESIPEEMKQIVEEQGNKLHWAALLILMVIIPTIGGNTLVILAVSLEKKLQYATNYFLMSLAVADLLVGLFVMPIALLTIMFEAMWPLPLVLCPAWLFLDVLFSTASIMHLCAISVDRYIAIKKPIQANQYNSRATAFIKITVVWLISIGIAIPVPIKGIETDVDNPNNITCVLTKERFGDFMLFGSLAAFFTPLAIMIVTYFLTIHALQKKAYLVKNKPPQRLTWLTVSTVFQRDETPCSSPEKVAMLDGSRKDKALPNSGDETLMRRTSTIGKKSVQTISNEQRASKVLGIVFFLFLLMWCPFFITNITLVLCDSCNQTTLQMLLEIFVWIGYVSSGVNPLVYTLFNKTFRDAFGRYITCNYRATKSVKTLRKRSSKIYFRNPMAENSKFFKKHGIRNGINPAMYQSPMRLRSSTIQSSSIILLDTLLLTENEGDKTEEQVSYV

[27] = molecular target: Muscarinic acetylcholine receptor M3 (Homo sapiens) (UniProt P20309); experiment: Inhibition of muscarinic M3 receptor (unknown origin) relative to control; settings: concentration not given here
[28] = Metabolic stability in human liver microsomes assessed as intrinsic clearance; format: ADME, Microsome; settings: read-out: CLH

T1 sequence (Q5BJF2 whole entry): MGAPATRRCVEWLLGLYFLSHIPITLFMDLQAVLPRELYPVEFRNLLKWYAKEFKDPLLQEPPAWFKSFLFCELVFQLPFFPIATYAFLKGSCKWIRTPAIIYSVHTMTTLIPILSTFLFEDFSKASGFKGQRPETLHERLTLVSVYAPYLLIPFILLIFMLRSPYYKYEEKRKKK
Sequence of Alpha-2B adrenergic receptor (Homo sapiens) (P18089 whole entry): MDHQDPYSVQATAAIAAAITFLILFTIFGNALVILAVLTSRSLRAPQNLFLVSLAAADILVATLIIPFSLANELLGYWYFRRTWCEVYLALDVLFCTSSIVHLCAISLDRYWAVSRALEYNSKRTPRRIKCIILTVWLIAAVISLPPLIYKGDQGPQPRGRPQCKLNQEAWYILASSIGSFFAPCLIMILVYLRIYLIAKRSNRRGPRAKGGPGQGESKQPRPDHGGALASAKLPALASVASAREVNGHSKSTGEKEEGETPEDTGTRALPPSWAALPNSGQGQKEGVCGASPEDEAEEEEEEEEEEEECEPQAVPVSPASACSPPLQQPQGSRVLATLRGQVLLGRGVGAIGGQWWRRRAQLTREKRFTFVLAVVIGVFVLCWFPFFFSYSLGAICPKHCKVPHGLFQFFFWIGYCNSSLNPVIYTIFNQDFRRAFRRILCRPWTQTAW

Compound: O=C(c1nc2cccnc2n1-c1ccc(Cl)c(Cl)c1)N1CC(F)(F)C1
- inhibition [1]: < 50%
- inhibition [2]: 70%
- inhibition [3]: < 50%
- inhibition [4]: < 50%
- inhibition [5]: < 50%
- inhibition [6]: < 50%
- inhibition [7]: < 50%
- IC50 [8]: 0.14 µM
- inhibition [9]: < 50%
- inhibition [10]: < 50%
- inhibition [11]: < 50%
- inhibition [12]: < 50%
- inhibition [13]: < 50%
- IC50 [14]: 7.8 µM
- inhibition [15]: < 50%
- IC50 [16]: > 10 µM
- inhibition [17]: < 50%
- inhibition [18]: < 50%
- inhibition [19]: < 50%
- CLint scaled [20]: 100 mL/min/kg
- inhibition [21]: < 50%
- inhibition [22]: < 50%
- inhibition [23]: < 50%
- inhibition [24]: < 50%
- inhibition [25]: < 50%
- inhibition [26]: < 50%
- inhibition [27]: < 50%
- CLint scaled [28]: 97.1 mL/min/kg

From ChEMBL document CHEMBL4725427, “Synthesis and SAR Studies of 1H-Pyrrolo[2,3-b]pyridine-2-carboxamides as Phosphodiesterase 4B (PDE4B) Inhibitors” (ACS Med Chem Lett, 2020)
